Bridges are numbered along the chain shown (N, C = ends). Roman numbers before positions name the chains, in order. Where no end group is shown, it is not given here. [ ]: non-standard residue; d: D form. The star is where a group is joined. ξ: configuration not given here. 1Nal = N[C@@H](Cc1cccc2ccccc12)C(=O)O; NH(CH2CH2O)2CH2CH2NH2 = NCCOCCOCCN*; hSer = N[C@@H](CCO)C(=O)O; ξK = NCCCCC(N)C(=O)O; Ahx = NCCCCCC(=O)O; Sar = CNCC(=O)O

One test has as its target T1, human EPO-R (Homo sapiens, UniProt P19235).
T1 construct: expressed in transfected cells; host or cells: murine pre-B-cell line Baf3 (BaF3/Gal4/Elk/EPOR)
T1 sequence (P19235 25-508): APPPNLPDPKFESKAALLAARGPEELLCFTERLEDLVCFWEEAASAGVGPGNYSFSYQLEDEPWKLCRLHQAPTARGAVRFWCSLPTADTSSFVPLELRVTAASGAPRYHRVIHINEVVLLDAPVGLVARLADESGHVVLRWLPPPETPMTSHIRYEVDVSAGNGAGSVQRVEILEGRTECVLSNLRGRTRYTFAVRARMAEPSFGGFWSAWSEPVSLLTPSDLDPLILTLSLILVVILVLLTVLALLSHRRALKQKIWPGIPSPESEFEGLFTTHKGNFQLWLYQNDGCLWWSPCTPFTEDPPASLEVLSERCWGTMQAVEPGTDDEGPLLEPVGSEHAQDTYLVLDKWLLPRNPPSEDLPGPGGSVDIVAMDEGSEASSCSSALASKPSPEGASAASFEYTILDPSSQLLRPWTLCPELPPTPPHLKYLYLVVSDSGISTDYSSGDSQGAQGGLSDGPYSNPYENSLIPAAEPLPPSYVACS
Briefly: Proliferation assay (BaF3/Gal4/Elk/EPOR cells, MTT). Type of test: cell-based. The settings on record: 48 h. As to the method: This assay is based upon a murine pre-B-cell line, Baf3, transfected to express human EPO-R. Proliferation of the resulting cell line, BaF3/Gal4/Elk/EPOR, is dependent on EPO-R activation. The degree of cell proliferation is quantitated using MTT, where the signal in the MTT assay is proportional to the number of viable cells.
The BaF3/Ga14/Elk/EPOR cells are cultured in spinner flasks in DMEM/F12 medium (Gibco) supplemented with 10% FBS (Hyclone) and 2% WEHI-3 supernatant (ATCC # TIB-68). Cultured cells are starved overnight, in a spinner flask at a cell density of 1×10^6 cells/ml, in DMEM/F12 medium supplemented with 10% FBS and 0.1% WEHI-3 supernatant. The starved cells are then washed twice with Dulbecco's PBS (Gibco), and resuspended to a density of 1×10^6 cells/ml in DMEM/F12 supplemented with 10% FBS (no WEHI-3 supernatant). 50 μL , aliquots (˜50,000 cells) of the cell suspension are then plated, in triplicate, in 96 well assay plates. […] The plated cells are then incubated for 48 h at 37° C. Next, 10 μL of MTT (Roche Diagnostics) is added to each culture dish well, and then allowed to incubate for 4 h. The reaction is then stopped by adding 10% SDS+0.01N HCl. The plates are then incubated overnight at 37° C. Absorbance of each well at a wavelength of 595 nm is then measured by spectrophotometry. Plots of the absorbance readings versus test peptide concentration are constructed and the EC50 calculated using Graph Pad software. The concentration of test peptide that results in a half-maximal absorbance is recorded as the EC50 [See Table 3: Proliferation EC50].

Test [1] deals with human, bone marrow derived CD34+ cells. It counts as cell-based. From the text:
EPO-R signaling stimulates the differentiation of bone marrow stem cells into proliferating red blood cell precursors. This assay measures the ability of test peptides to stimulate the proliferation and differentiation of red blood cell precursors from primary human bone marrow pluripotent stem cells.
For this assay, serial dilutions of test peptide are made in IMDM medium (Gibco) supplemented with 10% FBS (Hyclone). […] The methylcellulose and peptide mixture is then vortexed thoroughly. Aliquots (100,000 cells/mL) of human, bone marrow derived CD34+ cells (Poietics/Cambrex) are thawed. The thawed cells are gently added to 0.1 mL of 1 mg/ml DNAse (Stem Cells) in a 50 mL tube. Next, 40-50 mL IMDM medium is added gently to cells: the medium is added drop by drop along the side of the 50 mL tube for the first 10 mL, and then the remaining volume of medium is slowly dispensed along the side of the tube. The cells are then spun at 900 rpm for 20 min, and the media removed carefully by gentle aspiration. The cells are resuspended in 1 ml of IMDM medium and the cell density per mL is counted on hemacytometer slide (10 μL aliquot of cell suspension on slide, and cell density is the average count×10,000 cells/mil). The cells are then diluted in IMDM medium to a cell density of 15,000 cells/mL. A 100 μL of diluted cells is then added to each 1.5 mL methyl cellulose plus peptide sample (final cell concentration in assay media is 1000 cells/mL), and the mixture is vortexed. Allow the bubbles in the mixture to disappear, and then aspirate 1 mL using blunt-end needle. Add 0.25 mL aspirated mixture from each sample into each of 4 wells of a 24-well plate (Falcon brand). Incubate the plated mixtures at 37° C. under 5% CO2 in a humid incubator for 14 days. Score for the presence of erythroid colonies using a phase microscope (5×-10× objective, final magnification of 100×).

The target of test [2] is chimeric receptor comprising the extra-cellular portion of the human EPO receptor to the intra-cellular portion of the human GCSF receptor. Briefly: Reporter assay (Baf3/EpoR/GCSFR fos/lux luciferase). Type of test: cell-based. Conditions: peptide monomers; Baf3/EpoR/GCSFR fos/lux cells, 4 h. On the procedure:
One assay is based upon a murine pre-B-cell line expressing human EPO-R and further transfected with a fos promoter-driven luciferase reporter gene construct. Upon exposure to EPO or another EPO-R agonist, such cells respond by synthesizing luciferase. Luciferase causes the emission of light upon addition of its substrate luciferin. Thus, the level of EPO-R activation in such cells may be quantitated via measurement of luciferase activity. The activity of a test peptide is measured by adding serial dilutions of the test peptide to the cells, which are then incubated for 4 hours. After incubation, luciferin substrate is added to the cells, and light emission is measured. The concentration of test peptide that results in a half-maximal emission of light is recorded as the EC50.
This assay is based upon a on a murine pre-B-cell line derived reporter cell, Baf3/EpoR/GCSFR fos/lux. […] Thus, the level of EPO-R activation in such cells may be quantitated via measurement of luciferase activity.
The Baf3/EpoR/GCSFR fos/lux cells are cultured in DMEM/F12 medium (Gibco) supplemented with 10% fetal bovine serum (FBS; Hyclone), 10% WEHI-3 supernatant (the supernatant from a culture of WEHI-3 cells, ATCC # TIB-68), and penicillin/streptomycin. […] Following a 5-minute incubation, light emission is measured on a Packard Topcount Luminometer (Packard Instrument Co., Downers Grove, Ill.). […]
A general note: In a reporter assay the amount or activity of a reporter protein is the signal.

The target of a further test is T2, recombinant EPO-R (Homo sapiens, UniProt P19235).
T2 construct: made in house; host or cells: Chinese Hamster Ovary cells
T2 sequence (P19235 25-250 limits assumed): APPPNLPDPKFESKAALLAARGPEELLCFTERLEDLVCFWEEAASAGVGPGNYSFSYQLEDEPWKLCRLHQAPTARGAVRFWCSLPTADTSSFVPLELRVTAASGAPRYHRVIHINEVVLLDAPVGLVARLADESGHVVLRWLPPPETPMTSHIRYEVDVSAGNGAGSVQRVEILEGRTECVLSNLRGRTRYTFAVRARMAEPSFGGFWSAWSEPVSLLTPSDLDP
The experiment in a line: Competitive binding assay (AQ, bead proximity, tracer AF33068). The settings on record: tracer AF33068 30 nM, 18 hours. From the text:
Competitive binding calculations are made using an assay in which a light signal is generated as a function of the proximity of two beads: a streptavidin donor bead bearing a biotinylated EPO-R-binding peptide tracer and an acceptor bead to which is bound EPO-R. Light is generated by non-radiative energy transfer, during which a singlet oxygen is released from a first bead upon illumination, and contact with the released singlet oxygen causes the second bead to emit light. These bead sets are commercially available (Packard). Bead proximity is generated by the binding of the EPO-R-binding peptide tracer to the EPO-R. A test peptide that competes with the EPO-R-binding peptide tracer for binding to EPO-R will prevent this binding, causing a decrease in light emission.
In more detail the method is as follows: Add 4 μL of serial dilutions of the test EPO-R agonist peptide, or positive or negative controls, to wells of a 384 well plate. Thereafter, add 2 μL/well of receptor/bead cocktail. […]
Centrifuge 1 min to mix. […] After 18 hours read light emission using an AlphaQuest reader (Packard). […]

For orientation: EC50 means the concentration at which the effect is half-maximal. Higher therefore signals a less potent agent. For orientation: EC90 means the concentration needed for an effect of 90%. Higher therefore signals a need for much substance. On human EPO-R, “I: GGLYACH[hSer](Me)GPITWVCQPLR[Sar]K-NH2 / II: GGLYACH[hSer](Me)GPITWVCQPLR[Sar] (disulfide I:6-I:15, II:6-II:15; amide I:21-II:C) [AF35090]” returned an EC50 of 0.19 nM. Further, in test [1], the EC90 was 3.7 nM. With GGLYACHMGPMTVCQPLRG [AF31552], the EC50 in test [2] came to 100 nM. In test [1], “I: GGLYACH[hSer](Me)GPIT[1Nal]VCQPLRGK-NH2 / II: GGLYACH[hSer](Me)GPIT[1Nal]VCQPLRG (disulfide I:6-I:15, II:6-II:15; amide I:21-II:C) [AF32881]” returned an EC90 of 11 nM.

The substance “I: GGLYACHMGPIT[1Nal]VCQPLR[Sar]K-NH2 / II: GGLYACHMGPIT[1Nal]VCQPLR[Sar] (disulfide I:6-I:15, II:6-II:15; amide I:21-II:C) [AF34994]” came in with a 50% effective concentration (EC50) on human EPO-R of 0.17 nM. Besides, in test [1], it took 3.7 nM to reach the 90% level (EC90).

Broadly, the IC50 is the concentration at which inhibition is half-maximal. Turning to “I: GGLYACHMGPITWVCQPLRGK-NH2 / II: GGLYACHMGPITWVCQPLRG (disulfide I:6-I:15, II:6-II:15; amide I:21-II:C) [AF32579]”, the IC50 at recombinant EPO-R came to 1.7 nM. The substance further showed an EC50 on human EPO-R of 0.142 nM. The substance further displayed an EC90 in test [1] of 3 nM. For the substance “I: Ac-GGLYACH[hSer](Me)GPIT[1Nal]VCQPLR[Sar][ξK]-{NH(CH2CH2O)2CH2CH2NH2} / II: Ac-GGLYACH[hSer](Me)GPIT[1Nal]VCQPLR[Sar] (disulfide I:6-I:15, II:6-II:15; amide I:21-II:C) [AF35149]”, the EC50 at human EPO-R stood at 0.057 nM. In test [1], this substance gave an EC90 of 2 nM. In turn, “I: Ac-GGLYACHMGPITWVCQPLRGK[Ahx][Ahx] / II: Ac-GGLYACHMGPITWVCQPLRG (disulfide I:6-I:15, II:6-II:15; amide I:21-II:C; N-terminus assumed) [AF34753]” yielded an EC90 in test [1] of 1.2 nM. Regarding “I: Ac-GGLYACHMGPIT[1Nal]VCQPLR[Sar][ξK]-{NH(CH2CH2O)2CH2CH2NH2} / II: Ac-GGLYACHMGPIT[1Nal]VCQPLR[Sar] (disulfide I:6-I:15, II:6-II:15; amide I:21-II:C) [AF35525]”, the midpoint of the response at human EPO-R, the EC50, lay at 0.057 nM. In test [1], this substance returned an EC90 of 3 nM.

In test [2], “GGLYACHMGPMT(1-nal)VCQPLRG (GGLYACHMGPMT[1Nal]VCQPLRG; cysteine pairing not given here) [AF31748]” came in with an EC50 of 40 nM. The substance “I: Ac-GGLYACH[hSer](Me)GPIT[1Nal]VCQPLRGK[Ahx][Ahx] / II: Ac-GGLYACH[hSer](Me)GPIT[1Nal]VCQPLRG (disulfide I:6-I:15, II:6-II:15; amide I:21-II:C; N-terminus assumed) [AF35179]” returned an EC90 in test [1] of 3.7 nM.

These data come from patent publication US8304391B2 (Affymax, Inc., priority 2003, dated 2012).
